The data set concerns the target HBV. Conditions: ASO.

These results are taken from the OligoGym collection.

Several values for one entry are separate records, joined by “and”; a condition that tells them apart may be missing. Equal values may be shown once. HELM strings list units from the 5' end as sugar, base in round brackets, then linkage (d deoxyribose, r ribose, m 2'-O-methyl, p phosphodiester). Methylation of C is not given here. [moe] = 2'-O-(2-methoxyethyl) (MOE); [cEt] = constrained ethyl (cEt); [sp] = phosphorothioate linkage

As to “RNA1{[moe](A)[sp].[cEt](A)[sp].[cEt](A)[sp].d(T)[sp].d(G)[sp].d(G)[sp].d(C)[sp].d(A)[sp].d(C)[sp].d(T)[sp].d(A)[sp].d(G)[sp].d(T)[sp].[cEt](A)[sp].[cEt](A)[sp].[moe](A)}$$$$V2.0”, the target mRNA inhibition (HepG2, 0.07 µM) came to 51%. The same measure, in the same setting: to “RNA1{[moe](A)[sp].[cEt](A)[sp].[cEt](G)[sp].d(G)[sp].d(C)[sp].d(A)[sp].d(C)[sp].d(A)[sp].d(G)[sp].d(C)[sp].d(T)[sp].d(T)[sp].d(G)[sp].[cEt](G)[sp].[cEt](A)[sp].[moe](G)}$$$$V2.0” belongs 32% and 15%. As to “RNA1{[moe](A)[sp].[cEt](A)[sp].[cEt](G)[sp].d(T)[sp].d(C)[sp].d(C)[sp].d(A)[sp].d(C)[sp].d(C)[sp].d(A)[sp].d(C)[sp].d(G)[sp].d(A)[sp].[cEt](G)[sp].[cEt](T)[sp].[moe](C)}$$$$V2.0”, under “HepG2, 0.07 µM”, the target mRNA inhibition was 59% and 46%. Still for that read-out and setting: to “RNA1{[moe](A)[sp].[cEt](C)[sp].[cEt](C)[sp].d(A)[sp].d(C)[sp].d(A)[sp].d(T)[sp].d(C)[sp].d(A)[sp].d(T)[sp].d(C)[sp].d(C)[sp].d(A)[sp].[cEt](T)[sp].[cEt](A)[sp].[moe](T)}$$$$V2.0” belongs 35% and 54%; to “RNA1{[moe](A)[sp].[cEt](C)[sp].[cEt](C)[sp].d(A)[sp].d(C)[sp].d(T)[sp].d(G)[sp].d(A)[sp].d(A)[sp].d(C)[sp].d(A)[sp].d(A)[sp].d(A)[sp].[cEt](T)[sp].[cEt](G)[sp].[moe](G)}$$$$V2.0”, 70% and 57%.

Turning to “RNA1{[moe](A)[sp].[cEt](C)[sp].[cEt](T)[sp].d(G)[sp].d(A)[sp].d(A)[sp].d(C)[sp].d(A)[sp].d(A)[sp].d(A)[sp].d(T)[sp].d(G)[sp].d(G)[sp].[cEt](C)[sp].[cEt](A)[sp].[moe](C)}$$$$V2.0”, the target mRNA inhibition (HepG2, 0.07 µM) was 67% and 64%. Regarding “RNA1{[moe](A)[sp].[cEt](C)[sp].[cEt](T)[sp].d(G)[sp].d(G)[sp].d(A)[sp].d(G)[sp].d(C)[sp].d(C)[sp].d(A)[sp].d(C)[sp].d(C)[sp].d(A)[sp].[cEt](G)[sp].[cEt](C)[sp].[moe](A)}$$$$V2.0”, the target mRNA inhibition (HepG2, 0.07 µM) was 67% and 75%. For the substance “RNA1{[moe](A)[sp].[cEt](G)[sp].[cEt](G)[sp].d(C)[sp].d(A)[sp].d(T)[sp].d(A)[sp].d(G)[sp].d(C)[sp].d(A)[sp].d(G)[sp].d(C)[sp].d(A)[sp].[cEt](G)[sp].[cEt](G)[sp].[moe](A)}$$$$V2.0”, the target mRNA inhibition (HepG2, 0.07 µM) was 72% and 70%.

Take “RNA1{[moe](A)[sp].[cEt](G)[sp].d(A)[sp].d(A)[sp].d(G)[sp].d(T)[sp].d(C)[sp].d(C)[sp].d(A)[sp].d(C)[sp].d(C)[sp].d(A)[sp].[cEt](C)[sp].[moe](G)[sp].[cEt](A)[sp].[moe](G)}$$$$V2.0”: the target mRNA inhibition (HepG2, 0.07 µM) was 55% and 37%. On to “RNA1{[moe](A)[sp].[cEt](G)[sp].d(G)[sp].d(T)[sp].d(G)[sp].d(A)[sp].d(A)[sp].d(G)[sp].d(C)[sp].d(G)[sp].d(A)[sp].d(A)[sp].[cEt](G)[sp].[moe](T)[sp].[cEt](G)[sp].[moe](C)}$$$$V2.0”, for which the target mRNA inhibition reads like this: (HepG2, 0.0092593 µM) 12%; (HepG2, 0.0277778 µM) 36%; (HepG2, 0.07 µM) 78% and 85%; (HepG2, 0.0833333 µM) 67%; (HepG2, 0.25 µM) 80%. In the case of “RNA1{[moe](A)[sp].[moe](A)[sp].[moe](C)[sp].[moe](C)[sp].[moe](A)[sp].[moe](C)[sp].d(T)[sp].d(G)[sp].d(A)[sp].d(A)[sp].d(C)[sp].d(A)[sp].d(A)[sp].d(A)[sp].d(T)[sp].[moe](G)[sp].[moe](G)}$$$$V2.0”, the target mRNA inhibition (HepG2, 0.07 µM) was 60% and 45%. Take “RNA1{[moe](A)[sp].[moe](A)[sp].[moe](C)[sp].[moe](T)[sp].[moe](G)[sp].[moe](G)[sp].d(A)[sp].d(G)[sp].d(C)[sp].d(C)[sp].d(A)[sp].d(C)[sp].d(C)[sp].d(A)[sp].d(G)[sp].[moe](C)[sp].[moe](A)}$$$$V2.0”: the target mRNA inhibition (HepG2, 0.07 µM) is 70% and 50%. “RNA1{[moe](A)[sp].[moe](A)[sp].[moe](C)[sp].[moe](T)[sp].[moe](G)[sp].d(G)[sp].d(A)[sp].d(G)[sp].d(C)[sp].d(C)[sp].d(A)[sp].d(C)[sp].d(C)[sp].d(A)[sp].[moe](G)[sp].[moe](C)[sp].[moe](A)}$$$$V2.0”: the target mRNA inhibition (HepG2, 0.07 µM) is 31% and 37%. Still for that read-out and setting: the value for “RNA1{[moe](A)[sp].[moe](A)[sp].[moe](C)[sp].[moe](T)[sp].d(G)[sp].d(G)[sp].d(A)[sp].d(G)[sp].d(C)[sp].d(C)[sp].d(A)[sp].d(C)[sp].d(C)[sp].[moe](A)[sp].[moe](G)[sp].[moe](C)[sp].[moe](A)}$$$$V2.0” was 64% and 58%. On to “RNA1{[moe](A)[sp].[moe](A)[sp].[moe](C)[sp].d(C)[sp].d(A)[sp].d(C)[sp].d(T)[sp].d(G)[sp].d(A)[sp].d(A)[sp].d(C)[sp].d(A)[sp].[moe](A)[sp].[moe](A)[sp].[moe](T)[sp].[moe](G)[sp].[moe](G)}$$$$V2.0”, for which the target mRNA inhibition (HepG2, 0.07 µM) is 57% and 51%. For “RNA1{[moe](A)[sp].[moe](A)[sp].[moe](C)[sp].d(C)[sp].d(A)[sp].d(C)[sp].d(T)[sp].d(G)[sp].d(A)[sp].d(A)[sp].d(C)[sp].d(A)[sp].[moe](A)[sp].[moe](A)[sp].[moe](T)[sp].[moe](G)}$$$$V2.0”, the target mRNA inhibition (HepG2, 0.07 µM) is 20% and 37%. Turning to “RNA1{[moe](A)[sp].[moe](A)[sp].[moe](C)[sp].d(T)[sp].d(G)[sp].d(G)[sp].d(A)[sp].d(G)[sp].d(C)[sp].d(C)[sp].d(A)[sp].d(C)[sp].[moe](C)[sp].[moe](A)[sp].[moe](G)[sp].[moe](C)[sp].[moe](A)}$$$$V2.0”, the target mRNA inhibition (HepG2, 0.07 µM) was 69% and 58%. For the substance “RNA1{[moe](A)[sp].[moe](A)[sp].[moe](C)[sp].d(T)[sp].d(G)[sp].d(G)[sp].d(A)[sp].d(G)[sp].d(C)[sp].d(C)[sp].d(A)[sp].d(C)[sp].[moe](C)[sp].[moe](A)[sp].[moe](G)[sp].[moe](C)}$$$$V2.0”, where the note is “HepG2, 0.07 µM”, the target mRNA inhibition is 59% and 56%. Consider “RNA1{[moe](A)[sp].[moe](A)[sp].[moe](G)[sp].[moe](C)[sp].[cEt](G)[sp].[cEt](A)[sp].d(A)[sp].d(G)[sp].d(T)[sp].d(G)[sp].d(C)[sp].d(A)[sp].d(C)[sp].[moe](A)[sp].[moe](C)[sp].[moe](G)[sp].[moe](G)}$$$$V2.0”, for which the target mRNA inhibition came to 26% (HepG2, 0.009375 µM); 29% (HepG2, 0.01875 µM); 30% (HepG2, 0.0375 µM); 64% (HepG2, 0.075 µM); 80% (HepG2, 0.15 µM); 91% (HepG2, 0.3 µM). With “RNA1{[moe](A)[sp].[moe](A)[sp].[moe](G)[sp].[moe](C)[sp].d(G)[sp].d(A)[sp].d(A)[sp].d(G)[sp].d(T)[sp].d(G)[sp].d(C)[sp].d(A)[sp].d(C)[sp].[moe](A)[sp].[moe](C)[sp].[moe](G)}$$$$V2.0”, the target mRNA inhibition (HepG2, 0.07 µM) is 68% and 62%. The same measure, in the same setting: to “RNA1{[moe](A)[sp].[moe](A)[sp].[moe](G)[sp].d(A)[sp].d(T)[sp].d(G)[sp].d(A)[sp].d(G)[sp].d(G)[sp].d(C)[sp].d(A)[sp].d(T)[sp].[moe](A)[sp].[moe](G)[sp].[moe](C)[sp].[moe](A)[sp].[moe](G)}$$$$V2.0” belongs 69% and 60%; to “RNA1{[moe](A)[sp].[moe](A)[sp].[moe](T)[sp].[moe](T)[sp].[moe](T)[sp].d(A)[sp].d(T)[sp].d(G)[sp].d(C)[sp].d(C)[sp].d(T)[sp].d(A)[sp].d(C)[sp].d(A)[sp].[moe](G)[sp].[moe](C)}$$$$V2.0”, 39% and 23%; to “RNA1{[moe](A)[sp].[moe](A)[sp].[moe](T)[sp].d(T)[sp].d(T)[sp].d(A)[sp].d(T)[sp].d(G)[sp].d(C)[sp].d(C)[sp].d(T)[sp].d(A)[sp].[moe](C)[sp].[moe](A)[sp].[moe](G)[sp].[moe](C)}$$$$V2.0”, 52% and 49%. Consider “RNA1{[moe](A)[sp].[moe](A)[sp].d(G)[sp].d(C)[sp].d(G)[sp].d(A)[sp].d(A)[sp].d(G)[sp].d(T)[sp].d(G)[sp].d(C)[sp].[moe](A)[sp].[moe](C)[sp].[moe](A)[sp].[moe](C)[sp].[moe](G)[sp].[moe](G)}$$$$V2.0”, for which the target mRNA inhibition was 11% (HepG2, 0.0092593 µM); 27% (HepG2, 0.0277778 µM); 88% and 80% (HepG2, 0.07 µM); 58% (HepG2, 0.0833333 µM); 80% (HepG2, 0.25 µM). For the substance “RNA1{[moe](A)[sp].[moe](C)[sp].[moe](C)[sp].[moe](A)[sp].[moe](C)[sp].d(T)[sp].d(G)[sp].d(A)[sp].d(A)[sp].d(C)[sp].d(A)[sp].d(A)[sp].d(A)[sp].d(T)[sp].[moe](G)[sp].[moe](G)[sp].[moe](C)}$$$$V2.0”, where the note is “HepG2, 0.07 µM”, the target mRNA inhibition was 59% and 61%.

Regarding “RNA1{[moe](A)[sp].[moe](C)[sp].[moe](C)[sp].[moe](A)[sp].d(C)[sp].d(T)[sp].d(G)[sp].d(A)[sp].d(A)[sp].d(C)[sp].d(A)[sp].d(A)[sp].d(A)[sp].[moe](T)[sp].[moe](G)[sp].[moe](G)}$$$$V2.0”, where the note is “HepG2, 0.07 µM”, the target mRNA inhibition is 54% and 65%. Consider “RNA1{[moe](A)[sp].[moe](C)[sp].[moe](C)[sp].d(A)[sp].d(A)[sp].d(T)[sp].d(T)[sp].d(T)[sp].d(A)[sp].d(T)[sp].d(G)[sp].d(C)[sp].d(C)[sp].[cEt](T)[sp].[cEt](A)[sp].[cEt](C)}$$$$V2.0”, for which the target mRNA inhibition (HepG2, 0.07 µM) was 24% and 28%.

As for “RNA1{[moe](A)[sp].[moe](C)[sp].[moe](G)[sp].[moe](G)[sp].[moe](G)[sp].[moe](C)[sp].d(A)[sp].d(A)[sp].d(C)[sp].d(A)[sp].d(T)[sp].d(A)[sp].d(C)[sp].d(C)[sp].d(T)[sp].[moe](T)[sp].[moe](G)}$$$$V2.0”, the target mRNA inhibition (HepG2, 0.07 µM) is 0%. Regarding “RNA1{[moe](A)[sp].[moe](C)[sp].[moe](G)[sp].[moe](G)[sp].[moe](G)[sp].d(C)[sp].d(A)[sp].d(A)[sp].d(C)[sp].d(A)[sp].d(T)[sp].d(A)[sp].d(C)[sp].d(C)[sp].[moe](T)[sp].[moe](T)[sp].[moe](G)}$$$$V2.0”, under “HepG2, 0.07 µM”, the target mRNA inhibition is 48% and 45%.
